“And” between values parts separate entries of the source, which are not always exact repeats. Equal entries are not always repeated. Structures can show the parent of a compound that is named as a salt. Where two headings read alike, the source gives them in different places.
What was measured:
[1] = Phase transition temperature of acyl chain-modified phospholipids; format: physicochemical
[2] = Drug loading of payloads in liposomes (thin-film hydration; quantitated after liposome disruption); format: physicochemical
[3] = In vitro cumulative drug release by dialysis at 37° C.; format: physicochemical
[4] = physchem; conditions: pH 4
[5] = test system: C2C12 mouse myoblasts
[6] = test system: PC12 rat adrenal gland pheochromocytoma cells
[7] = pH 7.4
[8] = test system: sciatic nerve; conditions: rat, in vivo
[9] = test system: sciatic nerve; experiment: Motor nerve block, weight-bearing test; conditions: rat, in vivo
Description: Motor nerve block was assessed by a weight-bearing test to determine the motor strength of the rat's hind paw. The rat was positioned with one hind paw on a digital balance and was allowed to bear its own weight. The maximum weight that the rat could bear without the ankle touching the balance was recorded, and motor block was considered achieved when the motor strength was less than half maximal. Measurements were repeated three times at each time point and the median was used for further data analysis.
Duration of sensory block were calculated as the time required for thermal latency to return to 7 seconds (halfway between the baseline and maximal latencies). The duration of motor block was defined as the time it took for the weight-bearing to return to halfway between normal and maximal block.

[10] = test system: sciatic nerves and surrounding tissues; conditions: rat, in vivo
[11] = cited from earlier work
[12] = payload in aromatized liposomes containing Ph-DPPC (Lipo-Ph)
[13] = first 24 h, Lipo-Ph versus Lipo
[14] = payload from aromatized liposomes, 37° C.

Compound: 1-palmitoyl-2-(16-coumarin)palmitoyl-sn-glycero-3-phosphocholine [CM-DPPC]
- phase transition temperature (Tm) [1]: 66.1 °C

Compound: CCCCN1CCCCC1C(=O)Nc1c(C)cccc1C (stereo not shown) [Bup, bupivacaine hydrochloride]
- Drug loading, Lipo [2]: 3.5 ± 0.7%
- Increase in loading ([2]; Lipo-Ph versus Lipo): 60.0%
- Drug loading, Lipo-Ph [2, 12]: 5.6 ± 0.8%
- Cumulative release in first 24 h, Lipo [3]: 70.7 ± 1.9%
- Decrease in release [3, 13]: 47.7%
- Cumulative release in first 24 h, Lipo-Ph [3, 14]: 37.0 ± 2.7%
- logP [4]: -0.27

Compound: COc1cccc2c1C(=O)c1c(O)c3c(c(O)c1C2=O)C[C@@](O)(C(=O)CO)C[C@@H]3O[C@H]1C[C@H](N)[C@H](O)[C@H](C)O1 [Dox, doxorubicin hydrochloride]
- Drug loading, Lipo [2]: 0.8 ± 0.1%
- Increase in loading ([2]; Lipo-Ph versus Lipo): 30.4%
- Drug loading, Lipo-Ph [2, 12]: 1.1 ± 0.1%
- Cumulative release in first 24 h, Lipo [3]: 26.8 ± 1.1%
- Decrease in release [3, 13]: 34.3%
- Cumulative release in first 24 h, Lipo-Ph [3, 14]: 17.6 ± 1.0%
- logP [4]: -0.22

Compound: CCCCCCCCCCCCCCCC(=O)OC[C@H](COP(=O)([O-])OCC[N+](C)(C)C)OC(=O)CCCCCCCCCCCCCCCOc1ccccc1 [Ph-DPPC, 1-palmitoyl-2-(16-phenoxy)palmitoyl-sn-glycero-3-phosphocholine]
- phase transition temperature (Tm) [1]: 47.4 °C

Compound: Oc1ccccc1 [Phenol, phenol]
- cytotoxicity, C2C12 [5]: intrinsically toxic
- cytotoxicity, PC12 [6]: intrinsically toxic

Compound: CCN(CC)c1ccc2c(-c3ccc(S(=O)(=O)O)cc3S(=O)(=O)[O-])c3ccc(=[N+](CC)CC)cc-3oc2c1 [SRho, sulforhodamine B]
- Drug loading, Lipo [2]: 2.6 ± 0.3%
- Increase in loading ([2]; Lipo-Ph versus Lipo): 19.2%
- Drug loading, Lipo-Ph [2, 12]: 3.1 ± 0.2%
- Cumulative release in first 24 h, Lipo [3]: 12.2 ± 0.5%
- Decrease in release [3, 13]: 51.6%
- Cumulative release in first 24 h, Lipo-Ph [3, 14]: 5.9 ± 0.7%
- time within which free dye was released ([3]; unencapsulated SRho in the release set-up): ≤ 6 h
- log P (octanol-water partition coefficient) [7]: −0.53

Compound: tetrodotoxin [TTX]
- Drug loading, Lipo [2]: 0.11 ± 0.01%
- Drug loading, Lipo-Ph [2]: 0.13 ± 0.01%
- Increase in loading [2]: 25.5%
- Cumulative release in first 24 h, Lipo [3]: 17.1 ± 0.3%
- Cumulative release in first 24 h, Lipo-Ph [3]: 11.3 ± 0.4%
- Decrease in release [3]: 34.0%
- TTX released after 8 hours [3]: More than 95%
- Duration of nerve block [8]: 2.5 ± 0.6 h and 2.5 h
- nerve block [8]: did not induce detectable nerve block
- sensory nerve block [8]: no detectable block
- difference between the duration of sensory and motor nerve block [9]: no statistically significant difference
- Inflammation Scores, Day 4 [10]: 0
- Inflammation Scores, Day 14 [10]: 0 (0-0)
- Myotoxicity Scores, Day 4 [10]: 0
- Myotoxicity Scores, Day 14 [10]: 0
- log P (octanol-water partition coefficient) [7]: 0.13
- Log P [11]: −6.2

Source: US20250319025A9, “COMPOSITIONS COMPRISING MODIFIED PHOSPHOLIPIDS AND USES THEREOF” (priority 2021, published 2025)
